Laboratory results from US11839212B2, “Synergistic pesticidal compositions and methods for delivery of insecticidal active ingredients” (0903608 B.C. Ltd., priority 2018, dated 2023).
Read-outs that look alike come from different tables or passages of the source.

Assays:
Test in all cases: Synergistic Growth Inhibition Assay (MIC and FIC index, 96-well, resazurin)
Assay type in all cases: cell-based
Fusarium oxysporum = conditions: Fusarium oxysporum
Description: (§1) In some embodiments, the synergistic action between the pesticidal active ingredient, and the at least one C6-C10 (or alternatively C11 or C12) saturated or unsaturated aliphatic acid components of the pesticidal compositions according to embodiments of the present disclosure was tested using a Synergistic Growth Inhibition Assay, which is derived from and related to a checkerboard assay as is known in the art for testing of combinations of antimicrobial agents. In the Synergistic Growth Inhibition Assay used in accordance with some embodiments of the present disclosure, multiple dilutions of combinations of pesticidal active ingredient and at least one C6-C10 saturated or unsaturated aliphatic acid agents are tested in individual cells for inhibitory activity against a target pest or pathogenic organism. In one such embodiment, the combinations of pesticidal active ingredient and C6-C10 (or alternatively C11 or C12) saturated or unsaturated aliphatic acid agents may preferably be tested in decreasing concentrations. In a further such embodiment, the combinations of pesticidal active ingredient and C6-C10 (or alternatively C11 or C12) saturated or unsaturated aliphatic acid agents may be tested in increasing concentrations. These multiple combinations of the pesticidal active ingredient and at least one C6-C10 (or alternatively C11 or C12) saturated or unsaturated aliphatic acid agents may be prepared in 96-well microtiter plates. In one such embodiment, the Synergistic Growth Inhibition Assay then comprises rows which each contain progressively decreasing concentrations of the pesticidal active ingredient and one or more C6-C10 (or alternatively C11 or C12) saturated or unsaturated aliphatic acid agents to test for the MIC of the agents in combination at which growth of the target pest or pathogen is inhibited. Thus, each well of the microtiter plate is a unique combination of the two agents, at which inhibitory efficacy of the combination against the target pest or pathogen can be determined.
(§2) In one embodiment according to the present disclosure, for each row of microtiter cells in the Synergistic Growth Inhibition Assay, the FIC index is calculated from the lowest concentration of the pesticidal active ingredient and one or more C6-C10 saturated or unsaturated aliphatic acid agents necessary to inhibit growth of a target pest or pathogen. The FIC of each component is derived by dividing the concentration of the agent present in that well of the microtiter plate by the minimal inhibitory concentration (MIC) needed of that agent alone to inhibit growth of the target pest or pathogen. The FIC index is then the sum of these values for both agents in that well of the microtiter plate. […] Fractional inhibitory concentration indices may then used as measure of synergy. […] When the FIC index is equal to 1, the combination is additive.
(§3) Then, serial dilutions of these initial compositions in successive wells in the row of the microtiter plate were used to assay the pesticidal composition under the same conditions to determine the concentration of the composition combining the two agents corresponding to the microtiter well in which growth inhibition of the target pest or organism ceases.
Resazurin dye (also known as Alamar blue dye) was used as an indicator to determine the presence of growth or inhibition of growth of Fusarium oxysporum in the wells of the 96 well microtiter plates used in the exemplary Synergistic Growth Inhibition Assay. In addition to the color change of the resazurin dye in the presence of growth of the Fusarium oxysporum, an optical or visual examination of the microtiter well may also be made to additionally determine the presence of growth or inhibition of growth of the Fusarium oxysporum.

Sclerotinia sclerotiorum = conditions: Sclerotinia sclerotiorum, […]
Description: as §1, §2, §3
(§4) Similarly to as described above, Resazurin was used as an indicator of growth or inhibition of growth of Sclerotinia sclerotiorum in the exemplary Synergistic Growth Inhibition Assay. In addition to the color change of the resazurin, an optical or visual examination of the microtiter well may also be made to additionally determine the presence of growth or inhibition of growth of the Sclerotinia sclerotiorum.

Botrytis cinerea = conditions: Botrytis cinerea, 48 h
Description: as §1, §2, §3
as §4, with “Botrytis cinerea” for “Sclerotinia sclerotiorum”, “Botrytis cinerea.” for “Sclerotinia sclerotiorum.”

[1] = Table 20B, Compound A alone, incubation 7 days, read-out: MIC (A)
[2] = Table 23, Compound A alone, incubation 48 hours, read-out: MIC (A)
[3] = Table 26, Compound A alone, 48 hours incubation, read-out: MIC (A)
[4] = Table 24, Compound B alone, 48 hours incubation, read-out: MIC (B)
[5] = Table 25, Compound B alone, 48 hours incubation, read-out: MIC (B)
[6] = Table 26, Compound B alone, 48 hours incubation, read-out: MIC (B)
[7] = Table 54, Compound B alone, 48 hours incubation, read-out: MIC (B)
[8] = Table 56, Compound B alone, 48 hours incubation, read-out: MIC (B)
[9] = Table 59, Compound B alone, 48 hours incubation, read-out: MIC (B)

## Cc1cc(C2CC2)nc(Nc2ccccc2)n1 [Cyprodinil, reference compound]
Fusarium oxysporum; 48 h, Table 13, Compound A alone, incubation 48 hours, read-out: MIC (A)
  MIC: […]
Fusarium oxysporum; 48 h, Table 29, Compound A alone, 48 hours incubation, read-out: MIC (A)
  MIC: […]
Sclerotinia sclerotiorum; [1]
  MIC: […]
Botrytis cinerea; [2]
  MIC: 4.5 µg/mL
Botrytis cinerea; [3]
  MIC: 4.5 µg/mL
Botrytis cinerea; Table 47, Compound A alone, 48 hours incubation, read-out: MIC (A)
  MIC: 4.5 µg/mL

## CCCCCCC/C=C\C(=O)O [Cis-2-decenoic acid]
Sclerotinia sclerotiorum; Table 34, Compound B alone, 7 days incubation, read-out: MIC (B)
  MIC: 19.5 µg/mL

## CCCCCCCCCCCC(=O)O [Dodecanoic acid, dodecanoic acid]
Sclerotinia sclerotiorum; Table 16, Compound B alone, incubation 7 days, read-out: MIC (B)
  MIC: 50 µg/mL
Sclerotinia sclerotiorum; Table 17, Compound B alone, incubation 7 days, read-out: MIC (B)
  MIC: 50 µg/mL
Sclerotinia sclerotiorum; Table 18, Compound B alone, incubation 7 days, read-out: MIC (B)
  MIC: 50 µg/mL
Sclerotinia sclerotiorum; Table 20A, Compound B alone, incubation 7 days, read-out: MIC (B)
  MIC: 25 µg/mL
Botrytis cinerea; Table 21, Compound B alone, incubation 48 hours, read-out: MIC (B)
  MIC: 25 µg/mL
Botrytis cinerea; [4]
  MIC: 50 µg/mL
Botrytis cinerea; [5]
  MIC: 50 µg/mL
Botrytis cinerea; [6]
  MIC: 50 µg/mL
Botrytis cinerea; [7]
  MIC: 50 µg/mL
Botrytis cinerea; [8]
  MIC: 50 µg/mL

## N#Cc1c[nH]cc1-c1cccc2c1OC(F)(F)O2 [Fludioxonil, fludioxonil, reference compound]
Fusarium oxysporum; 24 h, read-out: MIC (A), Table 2, Compound A alone, 24 hour incubation
  MIC: 0.481 µg/mL
Fusarium oxysporum; 24 h, read-out: MIC (A), Table 3, Compound A alone, 24 hour incubation
  MIC: 0.241 µg/mL
Fusarium oxysporum; 24 h, read-out: MIC(A), Table 7, Compound A alone, 24 hour incubation
  MIC: 0.481 µg/mL
Fusarium oxysporum; 48 h, read-out: MIC (A), Table 13, Compound A alone, incubation 48 hours
  MIC: 21 µg/mL
Fusarium oxysporum; 48 h, read-out: MIC (A), Table 15B, Compound A alone, incubation 48 hours
  MIC: 21 µg/mL
Fusarium oxysporum; 48 h, read-out: MIC (A), Table 29, Compound A alone, 48 hours incubation
  MIC: 21 µg/mL
Fusarium oxysporum; read-out: MIC (A), Table 8, Compound A alone
  MIC: 0.481 µg/mL
Sclerotinia sclerotiorum; read-out: MIC (A), Table 37, Compound A alone, 7 days incubation
  MIC: 0.164 µg/mL

## CCCCCCCCCC(=O)O [Decanoic acid, decanoic acid]
Botrytis cinerea; Table 22, Compound B alone, incubation 48 hours, read-out: MIC (B)
  MIC: 78.1 µg/mL
Botrytis cinerea; [4]
  MIC: 312 µg/mL
Botrytis cinerea; [5]
  MIC: 15.6 µg/mL
Botrytis cinerea; [6]
  MIC: 78.1 µg/mL
Botrytis cinerea; Table 52, Compound B alone, 48 hours incubation, read-out: MIC(B)
  MIC: 15.6 µg/mL
Botrytis cinerea; [7]
  MIC: 15.6 µg/mL

## CCCCCCC(C)C(=O)O (centres unmarked) [2-Methyloctanoic acid]
Botrytis cinerea; Table 51, Compound B alone, 48 hours incubation, read-out: MIC (B)
  MIC: 39.1 µg/mL
Botrytis cinerea; [8]
  MIC: 312 µg/mL
Botrytis cinerea; [9]
  MIC: 78.1 µg/mL

## CCCC1COC(Cn2cncn2)(c2ccc(Cl)cc2Cl)O1 (centres unmarked) [Propiconazole, reference compound]
Sclerotinia sclerotiorum; Table 18, Compound A alone, incubation 7 days, read-out: MIC (A)
  MIC: 89 µg/mL
Sclerotinia sclerotiorum; [1]
  MIC: 89 µg/mL
Sclerotinia sclerotiorum; Table 39, Compound A alone, 7 days incubation, read-out: MIC (A)
  MIC: 89 µg/mL
Botrytis cinerea; Table 24, Compound A alone, 48 hours incubation, read-out: MIC (A)
  MIC: 89 µg/mL

## CCCCC(O)C(=O)O (centres unmarked) [2-hydroxyhexanoic acid]
Botrytis cinerea; [9]
  MIC: 1250 µg/mL

## COCC(=O)N(c1c(C)cccc1C)C(C)C(=O)OC (centres unmarked) [Metalaxyl, reference compound]
Sclerotinia sclerotiorum; [1]
  MIC: 1260 µg/mL
Botrytis cinerea; [2]
  MIC: 316 µg/mL
Botrytis cinerea; [3]
  MIC: 316 µg/mL
Botrytis cinerea; Table 48, Compound A alone, 48 hours incubation, read-out: MIC (A)
  MIC: 316 µg/mL

## CCCCCCCC/C=C\CCCCCCCC(=O)O [Oleic acid]
Botrytis cinerea; [7]
  MIC: 5000 µg/mL
Botrytis cinerea; [8]
  MIC: 5000 µg/mL

## C/C=C/C=C/C(=O)[O-].[K+] [(2E,4E)-2,4-hexadienoic acid, potassium salt]
Fusarium oxysporum; 24 h, read-out: MIC (B), Table 2, Compound B alone, 24 hour incubation
  MIC: 625 µg/mL
Fusarium oxysporum; 24 h, read-out: MIC(B), Table 1, Compound B alone, 24 hour incubation
  MIC: 625 µg/mL
